# Reference: patent US20260337212A1, “IP4-4,6 SUBSTITUTED DERIVATIVE COMPOUNDS FOR USE IN THE TREATMENT, INHIBITION OF PROGRESSION, AND PREVENTION OF ECTOPIC CALCIFICATION” (SANIFIT THERAPEUTICS, S.A., priority 2022, published 2026)
# How the values were obtained:
# [1] = tested on: interstitial cells from aortic human valves (VIC); test: Calcification of interstitial cells from calcified human aortic valves (Alizarin Red); assay type: cell-based; conditions: 1, 3, 10, 30, 100 μM; 3 weeks osteodifferentiation media; FIG. 15
# Protocol: Calcification was measured by Alizarin Red staining and quantified spectrophotometrically as relative calcification. Values are shown as dot plots with mean. A one-way ANOVA for parametric distributions (IP6) with DMS post-test statistical analysis was performed. For not normally distributed results (Compound 1, Compound 3, and Compound 6), a nonparametric one-way ANOVA (Kruskal-Wallis test) with Dunn's post-test was applied, p<0.05 was considered statistically significant.
# The dose-response efficacy of IP4-4,6 derivatives in the treatment of calcified aortic human valves was analyzed using an in vitro model (Zabirnyk A, et al., Vasc Pharmacol 2019; 122-123, 106583, doi:10.1016/j.vph.2019.106583). The model evaluated the effects of IP6, Compound 1, Compound 3, and Compound 6 on the calcification of interstitial cells from aortic human valves (VIC).
# Human calcified aortic valve leaflets were obtained during aortic valve replacement and were harvested. After the removal of the valve endothelial cells, VIC were isolated. The leaflets were placed in 30 mL of basic growth medium (DMEM), supplemented with 10% fetal bovine serum (FBS) and 50 μg/mL gentamycin with the addition of 1 mg/mL collagenase II. The cells were incubated overnight at 37° C. with 5% CO2. Next day, the digested tissue was homogenized by pipetting with a serological pipet and centrifuged at 300 g for 5 min and the supernatant carefully removed by aspiration.
# The pellet was washed in 10 mL of fresh DMEM and centrifuged as described previously. The supernatant was removed by aspiration, the cell pellet was resuspended in basic growth media and seeded in […]. VIC were cultured at 37° C. and 5% CO2 with growth media changed twice a week until they reached ~90% confluency. Cells were passaged at ratio of 1:2, propagated and frozen. […]
# Alizarin Red staining was performed to assess calcification. […] To quantify calcium accumulation, Alizarin Red staining was extracted and measured spectrophotometrically. […]
# [2] = In vitro inhibition of calcium phosphate crystallization in human plasma (spectrophotometric); assay type: biochemical; conditions: 0-100 μM, 1.5 mM phosphate, 12.5 mM calcium, pH 7.4, 30 min, rt, read-out: Relative Potency (EC50, inhibition of calcium phosphate crystallization)
# Protocol: The in vitro efficacy of the IP4-4,6 substituted derivatives (e.g., Compounds 1 to 53) of the invention on the inhibition of calcium phosphate crystallization in human plasma samples was evaluated according to a spectrophotometric assay previously described in the art (Ferrer M, et al., Sci Rep 2017; 7:6858, doi:10.1038/s41598-017-07203-x).
# A 96-well plate was employed. Plasma was spiked (1 volume of the IP4-4,6 substituted derivatives of the invention per 19 volumes of plasma) with increasing concentrations of the derivatives in the range of 0-100 μM. Plasma was then centrifuged at 10,000 g at rt and subsequently mixed with a mixture of 5 mM hydrogen phosphate and 41.67 mM calcium to attain final concentrations of 1.5 mM phosphate and 12.5 mM calcium, respectively. All reagent solutions were filtered, and pH adjusted to 7.4.
# Crystallization of calcium phosphate was monitored spectrophotometrically for 30 min at rt by measuring the increments in absorbance at 550 nm using the Biotek Powerwave XS Microplate spectrophotometer (BioTek Instruments, Inc., Winooski, VT, US). The plate was incubated at rt in an orbital shaker and absorbance measured every 3 min.
# Plasma crystallization was assessed based on slope measurement in the linear range between 6 and 24 min from plots of increase in absorbance versus logarithm of time. The efficacy of different myo-inositol phosphates derivatives in preventing in vitro formation of calcium phosphate crystals was assessed in human plasma samples using the slopes obtained between 6- and 24-min. Inhibition of crystallization was measured by comparing the slopes of the control sample (blank plasma) with those of samples containing the inhibitor as shown below: […]
EC50 [2] [µM],Compound,Inhibition of the calcification of VIC [1]
≤ 5,"4,6-O-di(tetradecyl)-myo-inositol-1,2,3,5-tetrakis(phosphate) octasodium salt [Compound 3]",effective in inhibiting the calcification of VIC in vitro in a dose-response manner
≤ 5,"4,6-O-dipentyl-myo-inositol-1,2,3,5-tetrakis(phosphate) octasodium salt [Compound 1]",effective in inhibiting the calcification of VIC in vitro in a dose-response manner
≤ 5,"O=P([O-])([O-])O[C@@H]1[C@@H](OCCCCCO)[C@H](OP(=O)([O-])[O-])[C@H](OP(=O)([O-])[O-])[C@H](OP(=O)([O-])[O-])[C@H]1OCCCCCO.[Na+].[Na+].[Na+].[Na+].[Na+].[Na+].[Na+].[Na+] [Compound 6, 4,6-O-bis(5-hydroxypentyl)-myo-inositol-1,2,3,5-tetrakis(phosphate) octasodium salt]",effective in inhibiting the calcification of VIC in vitro in a dose-response manner
